Row | melting point [°C] | SMILES
1 | 186 | CNS(=O)(=O)c1sc(N(C)C(=O)Cc2ccc(-c3ccc(Cl)cc3)cc2)nc1C
2 | 128 | CNS(=O)(=O)c1sc(N(C)C(=O)Cc2ccc(-c3ccccc3Cl)cc2)nc1C
3 | 209 | Cc1nc(N(C)C(=O)Cc2ccc(-c3cccc(N)c3)cc2)sc1S(N)(=O)=O
4 | 167 | Cc1nc(N(C)C(=O)Cc2ccc(-c3ccccc3)cc2)sc1S(=O)(=O)NCCO
5 | 221 | Cc1nc(N(C)C(=O)Cc2ccc(-c3ncccc3C(F)(F)F)cc2)sc1S(N)(=O)=O
6 | 234 | Cc1nc(N(C)C(=O)Cc2ccc(-c3cncnc3)cc2)sc1S(N)(=O)=O
7 | 218 | Cc1nc(N(C)C(=O)Cc2ccc(-c3ncccc3F)cc2)sc1S(N)(=O)=O
8 | 225 | Cc1nc(N(C)C(=O)Cc2ccc(-c3ncccc3C(F)(F)F)cc2)sc1S(N)(=O)=O.Cl
9 | 225 | CNS(=O)(=O)c1sc(N(C)C(=O)Cc2ccc(-c3ncccc3O)cc2)nc1C
10 | 206 | Cc1nc(N(C)C(=O)Cc2ccc(-c3ncccc3F)cc2)sc1S(N)(=O)=O.Cl
11 | 234 | CC(=O)Nc1cccc(-c2ccc(CC(=O)N(C)c3nc(C)c(S(N)(=O)=O)s3)cc2)c1
12 | 128 | Cc1nc(N(C)C(=O)Cc2ccc(-c3ccccc3)cc2)sc1S(=O)(=O)NCCO[Si](C)(C)C(C)(C)C
13 | 217 | Cc1nc(N(C)C(=O)Cc2ccc(-c3cnccn3)cc2)sc1S(N)(=O)=O
14 | 187 | CNS(=O)(=O)c1sc(N(C)C(=O)Cc2ccc(-c3cnccn3)cc2)nc1C
15 | 156 | Cc1nc(N(C)C(=O)Cc2ccc(-c3ccccc3C(F)(F)F)cc2)sc1S(=O)(=O)NCCNC(=O)OC(C)(C)C
16 | 199 | COCCN(C(=O)Cc1ccc(-c2cc(F)ccc2OC)cc1)c1nc(C)c(S(N)(=O)=O)s1
17 | 204 | Cc1nc(N(CCc2ccncc2)C(=O)Cc2ccc(-c3ccccc3)cc2)sc1S(N)(=O)=O
18 | 148 | COCCCN(C(=O)Cc1ccc(-c2ccccc2)cc1)c1nc(C)c(S(N)(=O)=O)s1
19 | 157 | CCOc1ccc(CC(=O)N(C)c2nc(C)c(S(=O)(=O)NC)s2)cc1
20 | 159 | Cc1nc(N(C)C(=O)Cc2ccc(-c3ccccc3)cc2)sc1S(=O)(=O)NCCOC(=O)CNC(=O)OC(C)(C)C
21 | 153 | CCOc1ccc(CC(=O)N(CCN(C)C)c2nc(C)c(S(=O)(=O)NC)s2)cc1
22 | 130 | Cc1nc(N(C)C(=O)Cc2ccc(-c3ccccn3)cc2)sc1S(=O)(=O)NCCO[Si](C)(C)C(C)(C)C

Row | melting point [°C] | SMILES
23 | 175 | Cc1nc(N(C)C(=O)Cc2ccc(-c3ccccn3)cc2)sc1S(=O)(=O)NCCO
24 | 133 | CNS(=O)(=O)c1sc(NC(=O)Cc2ccc(-c3ccccc3)cc2)nc1C
25 | 179 | Cc1nc(N(C(=O)Cc2ccc(-c3ccccc3)cc2)C2CC2)sc1S(N)(=O)=O
26 | 202 | CNS(=O)(=O)c1sc(N(C(=O)Cc2ccc(-c3ccccc3)cc2)C2CC2)nc1C
27 | 163 | COCCN(C(=O)Cc1ccc(-c2ccccc2)cc1)c1nc(C)c(S(N)(=O)=O)s1
28 | 187 | CNS(=O)(=O)c1sc(N(C)C(=O)Cc2ccc(-c3cccc(Cl)c3)cc2)nc1C
29 | 154 | CCCN(C(=O)Cc1ccc(-c2ccccc2)cc1)c1nc(C)c(S(N)(=O)=O)s1
30 | 161 | CNS(=O)(=O)c1sc(N(Cc2cccnc2)C(=O)Cc2ccc(-c3ccccc3)cc2)nc1C
31 | 158 | CNS(=O)(=O)c1sc(N(CCCN2CCCC2=O)C(=O)Cc2ccc(-c3ccccc3)cc2)nc1C
32 | 129 | CONS(=O)(=O)c1sc(N(C)C(=O)Cc2ccc(-c3ccccc3)cc2)nc1C
33 | 105 to 106 | CCOCCNS(=O)(=O)c1sc(N(C)C(=O)Cc2ccc(-c3ccccc3)cc2)nc1C
34 | 142 to 143 | COCCCNS(=O)(=O)c1sc(N(C)C(=O)Cc2ccc(-c3ccccc3)cc2)nc1C
35 | 139 to 140 | CCOCCCNS(=O)(=O)c1sc(N(C)C(=O)Cc2ccc(-c3ccccc3)cc2)nc1C
36 | 170 | CNS(=O)(=O)c1sc(N(C)C(=O)Cc2ccc(-c3cc(C)cc(C)c3)cc2)nc1C
37 | 190 | CNS(=O)(=O)c1sc(N(C)C(=O)Cc2ccc(-c3ccccc3OC(F)(F)F)cc2)nc1C
38 | 201 | CNS(=O)(=O)c1sc(N(C)C(=O)Cc2ccc(-c3cccc([N+](=O)[O-])c3)cc2)nc1C
39 | 74 to 75 | CCOCCCNS(=O)(=O)c1sc(N(CCCOCC)C(=O)Cc2ccc(-c3cccc(OC)c3)cc2)nc1C
40 | 125 to 127 | CCOCCCNS(=O)(=O)c1sc(N(C)C(=O)Cc2ccc(-c3cccc(OC)c3)cc2)nc1C
41 | 156 | CNS(=O)(=O)c1sc(N(C)C(=O)Cc2ccc(-c3cccc(OC(F)(F)F)c3)cc2)nc1C
42 | 208 | Cc1nc(N(C)C(=O)Cc2ccc(-c3cccnc3)cc2)sc1S(N)(=O)=O
43 | 180 | CNS(=O)(=O)c1sc(N(C)C(=O)Cc2ccc(-c3ccccc3)cc2)nc1C
44 | 177 | Cc1nc(N(C)C(=O)Cc2ccc(-c3cccnc3)cc2)sc1S(N)(=O)=O.Cl

Row | melting point [°C] | SMILES
45 | 200 | CNS(=O)(=O)c1sc(N(C)C(=O)Cc2ccc(-c3cccnc3)cc2)nc1C
46 | 270 | CNS(=O)(=O)c1sc(N(C)C(=O)Cc2ccc(-c3cccnc3)cc2)nc1C.Cl
47 | 125 to 127 | CCOCCNS(=O)(=O)c1sc(N(C)C(=O)Cc2ccc(OCC)cc2)nc1C
48 | 168 | CNS(=O)(=O)c1sc(N(C)C(=O)Cc2ccc(Br)cc2)nc1C
49 | 170 to 172 | CNS(=O)(=O)c1sc(N(C)C(=O)C(C)c2ccc(-c3ccccc3)cc2)nc1C (stereo not drawn)
50 | 94 | CCOCCOCCOCCN(C(=O)Cc1ccc(-c2ccccc2)cc1)c1nc(C)c(S(N)(=O)=O)s1
51 | 188 | CNS(=O)(=O)c1sc(N(CCNC(=O)OC(C)(C)C)C(=O)Cc2ccc(-c3ccccc3)cc2)nc1C
52 | 152 | CCN(C(=O)Cc1ccc(-c2ccccc2)cc1)c1nc(C)c(S(=O)(=O)NCC(F)(F)F)s1
53 | 216 | Cc1nc(N(C)C(=O)Cc2ccc(-c3ccccc3)cc2)sc1S(=O)(=O)NCC(F)(F)F
54 | 154 | CNS(=O)(=O)c1sc(N(C)C(=O)Cc2ccc(-c3cccc(OC)c3)cc2)nc1C
55 | 108 | CCCN(C(=O)Cc1ccc(-c2ccccc2)cc1)c1nc(C)c(S(=O)(=O)NCC(F)(F)F)s1
56 | 161 | Cc1nc(N(C)C(=O)Cc2ccc(-c3cccc(O[Si](C)(C)C(C)(C)C)c3)cc2)sc1S(N)(=O)=O
57 | 80 | CNS(=O)(=O)c1sc(N(C)C(=O)Cc2ccc(-c3ncccc3N)cc2)nc1C
58 | 130 | CNS(=O)(=O)c1sc(N(C)C(=O)Cc2ccc(-c3cncc(C#N)c3)cc2)nc1C
59 | 113 | CNS(=O)(=O)c1sc(N(C)C(=O)Cc2ccc(-c3cnccc3C)cc2)nc1C
60 | 202 | CNS(=O)(=O)c1sc(N(C)C(=O)Cc2ccc(-c3ccccc3C(F)(F)F)cc2)nc1C
61 | 167 | CNS(=O)(=O)c1sc(N(C)C(=O)Cc2ccc(-c3ccccc3C)cc2)nc1C
62 | 190 | CNS(=O)(=O)c1sc(N(C)C(=O)Cc2ccc(-c3cccc(F)c3)cc2)nc1C
63 | 219 | COc1ccc(F)cc1-c1ccc(CC(=O)N(C)c2nc(C)c(S(N)(=O)=O)s2)cc1
64 | 68 to 70 | CCCCOc1ccc(CC(=O)N(C)c2nc(C)c(S(=O)(=O)NCCOCC)s2)cc1
65 | 122 | CCOc1ccc(CC(=O)N(Cc2ccncc2)c2nc(C)c(S(N)(=O)=O)s2)cc1
66 | 205 | Cc1nc(N(Cc2ccccn2)C(=O)Cc2ccc(-c3ccccc3)cc2)sc1S(N)(=O)=O

Row | melting point [°C] | SMILES
67 | 189 | Cc1nc(N(Cc2cccnc2)C(=O)Cc2ccc(-c3ccccc3)cc2)sc1S(N)(=O)=O
68 | 192 | CNS(=O)(=O)c1sc(N(C)C(=O)Cc2ccc(-c3ccccc3OC)cc2)nc1C
69 | 130 | Cc1nc(N(Cc2ccncc2)C(=O)Cc2ccc(-c3ccccc3)cc2)sc1S(N)(=O)=O
70 | 202 | Cc1nc(N(C)C(=O)Cc2ccc(-c3cccc([N+](=O)[O-])c3)cc2)sc1S(N)(=O)=O
71 | 109 | CNS(=O)(=O)c1sc(N(C)C(=O)Cc2ccc(-c3cccc4c3oc3ccccc34)cc2)nc1C
72 | 204 | Cc1ccncc1-c1ccc(CC(=O)N(C)c2nc(C)c(S(N)(=O)=O)s2)cc1
73 | 183 | Cc1cnc(N)c(-c2ccc(CC(=O)N(C)c3nc(C)c(S(N)(=O)=O)s3)cc2)c1
74 | 264 | Cc1nc(N(C)C(=O)Cc2ccc(-c3ncccc3N)cc2)sc1S(N)(=O)=O.Cl
75 | 175 | Cc1nc(N(C)C(=O)Cc2ccc(-c3ccccc3)cc2)sc1S(=O)(=O)NCCN(C)C(=O)OC(C)(C)C
76 | 202 | Cc1nc(N(C)C(=O)Cc2ccc(-c3cccc(F)c3F)cc2)sc1S(N)(=O)=O
77 | 215 | Cc1nc(N(C)C(=O)Cc2ccc(-c3c(F)cccc3F)cc2)sc1S(N)(=O)=O
78 | 138 | Cc1nc(N(C)C(=O)Cc2ccc(-c3ccccc3)cc2)sc1S(=O)(=O)NCCN
79 | 193 | CNS(=O)(=O)c1sc(N(C)C(=O)Cc2ccc(-c3cncnc3)cc2)nc1C
80 | 136 | Cc1nc(N(CCc2ccccn2)C(=O)Cc2ccc(-c3ccccc3)cc2)sc1S(N)(=O)=O
81 | 161 | Cc1nc(N(CC2CC2)C(=O)Cc2ccc(-c3ccccc3)cc2)sc1S(N)(=O)=O
82 | 117 | C=CCN(C(=O)Cc1ccc(-c2ccccc2)cc1)c1nc(C)c(S(N)(=O)=O)s1
83 | 154 | Cc1nc(N(Cc2ccccc2)C(=O)Cc2ccc(-c3ccccc3)cc2)sc1S(N)(=O)=O
84 | 174 | Cc1nc(N(CCc2ccccc2)C(=O)Cc2ccc(-c3ccccc3)cc2)sc1S(N)(=O)=O
85 | 159 | Cc1nc(N(CC2CCCO2)C(=O)Cc2ccc(-c3ccccc3)cc2)sc1S(N)(=O)=O (stereo not drawn)
86 | 203 | Cc1nc(N(CCCN2CCCC2=O)C(=O)Cc2ccc(-c3ccccc3)cc2)sc1S(N)(=O)=O
87 | 202 | Cc1nc(N(CCN2CCCC2=O)C(=O)Cc2ccc(-c3ccccc3)cc2)sc1S(N)(=O)=O
